The values that follow come from US11427783B2, “Perfuming compositions” (Firmenich SA, priority 2016, dated 2022).

Data set [1] is described as follows: Volatility of perfuming compounds in air. It counts as physicochemical.
Data set [2] is described as follows: Log P (n-octanol/water) of perfuming compounds.
Data set [3] is described as follows: Odor threshold of perfuming compounds in air.
Setting [4] is: Table 5, perfuming compounds having a green note.
Setting [5] is: n-octanol/water, perfuming compounds having a fruity note (Table 6).

Structures can show the parent of a compound that is named as a salt. Where two headings read alike, the source gives them in different places.

Broadly, the logP is a log measure of how a compound divides between an organic and an aqueous phase. Higher therefore signals higher lipophilicity. Regarding `CC/C=C\CC/C=C/CO` [(2E,6Z)-2,6-NONADIEN-1-OL], the Volatility in data set [1] (Table 4, watery note) was 98.76 μg/l air; in data set [1] (setting [4]), 98.76 μg/l air. For the same compound, the “Log P (n-octanol/water)” value in data set [2] (setting [4]) amounted to 2.68. In “physchem” (n-octanol/water), this compound gave a logP of 2.68. The “Odor Threshold” value in data set [3] (Table 4, watery note) stood at 3.22E−06 μg/l air.
With `CCCCCCC#CC(=O)OC` [METHYL 2-NONYNOATE], the Volatility was 91.76 μg/l air in data set [1] (Table 4, watery note) and 91.76 μg/l air in data set [1] (setting [4]). For the same compound, the “Log P (n-octanol/water)” value in data set [2] (setting [4]) amounted to 3.51. This compound registered a logP in “physchem” (n-octanol/water) of 3.51. Further, in data set [3] (Table 4, watery note), the “Odor Threshold” value is on record as 1.60E−03 μg/l air.
Take `CCCCCCCCC=O` [nonanal]: the Volatility in data set [1] (setting [4]) is 2777.63 μg/l air; in data set [1] (Table 7, citrus note), 2777.63 μg/l air. For the same compound, the “Log P (n-octanol/water)” value in data set [2] (Table 7, citrus note) turned out to be 3.42. In the data set “physchem” (n-octanol/water), the logP is 3.42. Also, in data set [3] (Table 7, citrus note), the “Odor Threshold” value is listed as 8.14E−03 μg/l air.
In the case of `CCC/C=C/C=O` [(2E)-2-HEXENAL], the “Log P (n-octanol/water)” value in data set [2] (Table 7, citrus note) is given as 1.62; in data set [2] (setting [5]), 1.62. Besides, in “physchem” (n-octanol/water), the logP amounted to 1.62. Moreover, the “Odor Threshold” value in data set [3] (Table 7, citrus note) was found to be 2.53E−03 μg/l air.
Consider `CCCCCCCCOC(C)=O` [octyl acetate], for which the “Log P (n-octanol/water)” value in data set [2] (Table 7, citrus note) was determined as 4.29. Also, in the data set “physchem” (n-octanol/water), the logP turned out to be 4.29. The “Odor Threshold” value in data set [3] (Table 7, citrus note) is 1.76E−01 μg/l air.
In data set [1] (Table 4, watery note), `CC(C)=CCCC1=CCC(C)(C=O)CC1` (racemic) showed a Volatility of 26.54 μg/l air. The same compound yielded a logP in “physchem” (n-octanol/water) of 5.14. In data set [3] (Table 4, watery note), the “Odor Threshold” value was 2.72E−02 μg/l air.
As for `CC(C)(C)c1ccc2c(c1)OCC(=O)CO2` [7-(2-methyl-2-propanyl)-2H-1,5-benzodioxepin-3(4H)-one], the Volatility in data set [1] (Table 4, watery note) is recorded as 4.37 μg/l air; in data set [1] (setting [4]), 4.37 μg/l air. The “Log P (n-octanol/water)” value in data set [2] (setting [4]) was 2.97. This compound also showed a logP in “physchem” (n-octanol/water) of 2.97. Also, in data set [3] (Table 4, watery note), the “Odor Threshold” value worked out at 1.53E−04 μg/l air.
`CC(C=O)Cc1ccc2c(c1)OCO2` (racemic) [(+−)-3-(1,3-BENZODIOXOL-5-YL)-2-METHYLPROPANAL]: the Volatility in data set [1] (Table 4, watery note) stood at 3.57 μg/l air. Also, the logP in the data set “physchem” turned out to be 1.28. In addition, in data set [3] (Table 4, watery note), the “Odor Threshold” value came out at 2.23E−04 μg/l air.
Turning to `CCCCCC#CC(=O)OC` [METHYL 2-OCTYNOATE″, METHYL 2-OCTYNOATE], the Volatility in data set [1] (Table 4, watery note) is listed as 472.01 μg/l air; in data set [1] (setting [4]), 472.01 μg/l air. In the data set “physchem” (n-octanol/water), the logP was determined as 2.9. Besides, in data set [3] (Table 4, watery note), the “Odor Threshold” value is given as 8.31E−04 μg/l air.
On to `CC(C)=CCCC(C)CCOCC=O` (racemic), for which, in data set [1] (Table 7, citrus note), the Volatility came out at 4.70 μg/l air. Also, the logP in the data set “physchem” (n-octanol/water) is 4.33. Moreover, in data set [3] (Table 7, citrus note), the “Odor Threshold” value stood at 8.95E−04 μg/l air.
For `CC(=O)OC(C)c1ccccc1` (racemic) [(+−)-1-PHENYLETHYL ACETATE], in data set [2] (Table 7, citrus note), the “Log P (n-octanol/water)” value was found to be 2.22. Also, the logP in the data set “physchem” (n-octanol/water) came to 2.22. In data set [3] (Table 7, citrus note), the “Odor Threshold” value was determined as 4.43E−02 μg/l air.
For `CC1=CC2CC(C=O)C1CC2C(C)C` (stereo not drawn) [8-ISOPROPYL-6-METHYL-BICYCLO[2.2.2]OCT-5-ENE-2-CARBALDEHYDE], the Volatility in data set [1] (Table 4, watery note) turned out to be 131.02 μg/l air; in data set [1] (setting [4]), 131.02 μg/l air. Besides, the “Log P (n-octanol/water)” value in data set [2] (setting [4]) came to 3.81. For the same compound, the logP in the data set “physchem” (n-octanol/water) was determined as 3.81. The “Odor Threshold” value in data set [3] (Table 4, watery note) worked out at 7.11E−05 μg/l air.
With `O=COCCc1ccccc1` [2-PHENYLETHYL FORMATE], the “Log P (n-octanol/water)” value came to 1.90 in data set [2] (Table 7, citrus note) and 1.90 in data set [2] (setting [5]). Besides, in the data set “physchem” (n-octanol/water), the logP was 1.9. For the same compound, the “Odor Threshold” value in data set [3] (Table 7, citrus note) turned out to be 8.34E−04 μg/l air.
As for `COCC(C)Cc1ccccc1` (racemic) [(+−)-(3-methoxy-2-methylpropyl)benzene], the “Log P (n-octanol/water)” value in data set [2] (Table 7, citrus note) worked out at 3.57; in data set [2] (setting [5]), 3.57. The compound further returned a logP in “physchem” (n-octanol/water) of 3.57. Besides, the “Odor Threshold” value in data set [3] (Table 7, citrus note) is 1.51E−02 μg/l air.
In the case of `CC(C)CC1CC(C)(O)CCO1` (racemic) [(+−)-TETRAHYDRO-2-ISOBUTYL-4-METHYL-4(2H)-PYRANOL], in data set [1] (Table 4, watery note), the Volatility is recorded as 79.79 μg/l air. In the data set “physchem” (n-octanol/water), this compound showed a logP of 2.22. Besides, in data set [3] (Table 4, watery note), the “Odor Threshold” value amounted to 1.35E−02 μg/l air.
For the compound `CCCCCCCCCCCC=O` [DODECANAL], the Volatility in data set [1] (Table 4, watery note) is 144.79 μg/l air. Further, the lipophilicity (logP) in “physchem” (n-octanol/water) was found to be 4.94. Also, in data set [3] (Table 4, watery note), the “Odor Threshold” value was determined as 9.90E−04 μg/l air.
In data set [1] (Table 4, watery note), `CCCCCCCCCCCC#N` [DODECANENITRILE] had a Volatility of 56.74 μg/l air. Moreover, the logP in the data set “physchem” (n-octanol/water) amounted to 1.61. Also, the “Odor Threshold” value in data set [3] (Table 4, watery note) is given as 3.20E−06 μg/l air.
`CC(C)=CCCC(C)C=O` (racemic): the “Log P (n-octanol/water)” value in data set [2] (setting [5]) was 3.15. Further, the logP in “physchem” (n-octanol/water) came to 3.15. Moreover, the “Odor Threshold” value in data set [3] (Table 4, watery note) stood at 2.11E−04 μg/l air.
As for `CCC(C)C(=O)OC(C)C` (racemic) [(+−)-ISOPROPYL 2-METHYLBUTANOATE], the “Log P (n-octanol/water)” value in data set [2] (Table 7, citrus note) is listed as 2.85. Further, in the data set “physchem” (n-octanol/water), the lipophilicity (logP) stood at 2.85. For the same compound, the “Odor Threshold” value in data set [3] (Table 7, citrus note) is recorded as 8.42E−03 μg/l air.
`CCCCCC(C#N)CCC` (racemic) [(+−)-2-propylheptanenitrile]: the “Log P (n-octanol/water)” value in data set [2] (Table 7, citrus note) is on record as 3.67. For the same compound, the logP in “physchem” (n-octanol/water) was determined as 3.67. Moreover, the “Odor Threshold” value in data set [3] (Table 7, citrus note) came out at 7.83E−02 μg/l air.
`CCOc1ccc2ccccc2c1` [2-ETHOXYNAPHTHALENE] yielded a Volatility in data set [1] (Table 7, citrus note) of 22.67 μg/l air. This compound showed a logP in the data set “physchem” (n-octanol/water) of 3.82. For the same compound, in data set [3] (Table 7, citrus note), the “Odor Threshold” value was found to be 3.57E−03 μg/l air.
The compound `CCCCCCCCCCC=O` [undecanal] gave a Volatility in data set [1] (Table 4, watery note) of 178.29 μg/l air. For the same compound, the logP in “physchem” (n-octanol/water) came to 4.56. Besides, the “Odor Threshold” value in data set [3] (Table 4, watery note) came out at 1.65E−03 μg/l air.
The like results for `COC(=O)c1c(C)cc(O)c(C)c1O` [METHYL 2,4-DIHYDROXY-3,6-DIMETHYLBENZOATE] were, in that order, 1.52 μg/l air, 2.3 and 4.89E−06 μg/l air.
With `C=CC(C)CC(=O)CC(C)C` (racemic), the “Log P (n-octanol/water)” value in data set [2] (Table 7, citrus note) is reported as 3.12. Besides, the logP in “physchem” (n-octanol/water) is 3.12. Besides, the “Odor Threshold” value in data set [3] (Table 7, citrus note) is on record as 2.78E−01 μg/l air.
On to `CCCc1ccc2c(c1)OCC(=O)CO2` [7-PROPYL-2H,4H-1,5-BENZODIOXEPIN-3-ONE], for which the Volatility in data set [1] (Table 4, watery note) is 4.85 μg/l air; in data set [1] (setting [4]), 4.85 μg/l air. The “Log P (n-octanol/water)” value in data set [2] (setting [4]) came out at 2.79. The compound further came in with a logP in “physchem” (n-octanol/water) of 2.79. Also, the “Odor Threshold” value in data set [3] (Table 4, watery note) worked out at 6.43E−05 μg/l air.
Turning to `CC(C=O)Cc1ccc(C(C)(C)C)cc1` (racemic) [(+−)-2-methyl-3-[4-(2-methyl-2-propanyl)phenyl]propanal], the Volatility in data set [1] (Table 4, watery note) is 12.86 μg/l air. The compound further returned a logP in the data set “physchem” (n-octanol/water) of 3.9. Also, the “Odor Threshold” value in data set [3] (Table 4, watery note) is recorded as 2.39E−04 μg/l air.
In the case of `CCCCCCCOC(C)=O` [heptyl acetate], in data set [2] (Table 7, citrus note), the “Log P (n-octanol/water)” value was determined as 3.69. Besides, in the data set “physchem” (n-octanol/water), the logP stood at 3.69. For the same compound, the “Odor Threshold” value in data set [3] (Table 7, citrus note) turned out to be 1.32E−01 μg/l air.
`CCCCCC=O` [hexanal]: the Volatility is given as 68294.85 μg/l air in data set [1] (setting [4]) and 68294.85 μg/l air in data set [1] (Table 7, citrus note). In addition, in data set [2] (Table 7, citrus note), the “Log P (n-octanol/water)” value is reported as 2.00. In the data set “physchem” (n-octanol/water), this compound registered a logP of 2. Also, the “Odor Threshold” value in data set [3] (Table 7, citrus note) is recorded as 1.76E−03 μg/l air.
With `COc1ccc(CC(C)C=O)cc1` (racemic) [(+−)-3-(4-methoxyphenyl)-2-methylpropanal], the Volatility in data set [1] (Table 4, watery note) amounted to 18.99 μg/l air; in data set [1] (setting [4]), 18.99 μg/l air. In data set [2] (setting [4]), the “Log P (n-octanol/water)” value is on record as 2.80. Moreover, the logP in the data set “physchem” (n-octanol/water) was 2.8. In data set [3] (Table 4, watery note), the “Odor Threshold” value is reported as 9.79E−03 μg/l air.
In data set [1] (Table 4, watery note), `CC(C)=CCCC(C)CCCC(C)C=O` (racemic) came in with a Volatility of 18.23 μg/l air. In “physchem” (n-octanol/water), the lipophilicity (logP) is 5.2. The “Odor Threshold” value in data set [3] (Table 4, watery note) was 1.59E−02 μg/l air.
In data set [1] (Table 4, watery note), `CCCCCCCCCC=O` [DECANAL″, DECANAL] returned a Volatility of 466.56 μg/l air. The same compound showed a logP in the data set “physchem” (n-octanol/water) of 3.99. Further, in data set [3] (Table 4, watery note), the “Odor Threshold” value is 1.92E−03 μg/l air.
Take `C=CC(C)(CCC=C(C)C)OC(C)=O` (racemic) [(+−)-1,5-DIMETHYL-1-VINYL-4-HEXENYL ACETATE]: the “Log P (n-octanol/water)” value in data set [2] (Table 7, citrus note) was determined as 4.04; in data set [2] (setting [5]) it was 4.04. The logP in the data set “physchem” is 4.04. The “Odor Threshold” value in data set [3] (Table 7, citrus note) came to 7.40E−02 μg/l air.
